# Measurements from paper PMC4721142, “Randomized controlled studies on the efficacy of antiarthritic agents in inhibiting cartilage degeneration and pain associated with progression of osteoarthritis in the rat” (Arthritis Research & Therapy, 2016).
# Several values for one entry are separate records, joined by “and”; a condition that tells them apart may be missing. Equal entries are not always repeated.
# Assays:
# [1] = system: Normal human articular chondrocytes; experiment: Cytotoxicity to chondrogenic pellets (CellTiter-Blue)
# [2] = system: MIA rat model of OA; experiment: MIA trial 3 digital Randall-Selitto test (weekly i.a. clonidine 4.5 μg, tacrolimus 30 ng, fluocinolone 15 ng, meloxicam 100 μg, tranilast 500 ng, TH 150 μg; clonidine 100 μg/kg s.c.); format: in vivo
# Experimental: The digital Randall-Selitto (dRS) test is said to be a reliable and repeatable measure of neuropathic, bone, and inflammatory pain behavior in several different models, including those of arthritic or joint pain [29, 31, 32]. Baseline and posttreatment values were evaluated using a dRS test device (IITC Life Science, Woodland Hills, CA, USA). Animals were allowed to acclimate to the testing room before all experimentation and for a minimum of 30 minutes before testing. To ensure that their hind limbs were accessible, the animals were gently suspended in a restraint sling. The joint compression threshold was measured once at each time point for the ipsilateral and contralateral knee joints. Pressure was applied gradually over approximately 10 seconds to the medial and lateral aspects of the knee joint. Measurements were taken from the first observed behavior of vocalization, struggle, or withdrawal. A cutoff value of 600 g was used to prevent injury to the animal.
# Following isoflurane anesthesia, 50 μl (2 mg) of MIA was injected into the synovial space of the left knee. Animals were randomly assigned to groups, and pain behavior was assessed 7, 14, 21, and 28 days following MIA injection and intervention using WB with the Stoelting incapacitance meter (trial 1) or the dRS test (trials 2 and 3). […] Animals received MIA treatment and then saline control or therapeutic. […] Histopathology was performed at each time point and at study termination. All studies were conducted in accordance with the International Association for the Study of Pain Guidelines and were approved by the Algos Therapeutics, Inc. Institutional Animal Care and Use Committee (IACUC) before initiation. Those running the studies were blind to the treatments. See Additional file 1 for further details. […]
# struggle or withdrawal. A cut-off value of 600 g was used to prevent injury to the animal. The mean and standard error of the mean (SEM) were determined for each treatment group.
# Statistical significance was assigned as p ≤ 0.05. The stability of the vehicle group over time was assessed on each testing day (Days 7, 14, 21, and 28) using repeated measures one-way analysis of variance (ANOVA) comparing joint compression thresholds at each experimental time point on a given testing day versus that testing day’s pre-treatment value. Osteoarthritis-related pain in the vehicle group was estimated at each time point on each testing day by comparing ipsilateral (injured) to contralateral (normal) joint compression thresholds using paired t-tests. The progression of osteoarthritis-related pain in the vehicle group was estimated by comparing pre-treatment joint compression thresholds on each testing day versus pre-MIA measurements using repeated measures one-way ANOVA. […]
# thresholds at each experimental time point on a given testing day with vehicle treated animals using an unpaired t-test. The acute effect of Tacrolimus was analyzed by comparing joint compression thresholds at each time point on a given testing day with the corresponding pre-treatment baseline values using repeated measures one-way ANOVA and compared to vehicle treated animals using […]
# values using repeated measures one-way ANOVA. Chronic effects were analyzed by comparing pre-treatment joint compression thresholds on each testing day versus the appropriate Day 7 pre-treatment values using repeated measures one-way ANOVA and by comparing pre-treatment joint compression thresholds with vehicle treated animals on each testing day using an unpaired t-test or one-way ANOVA. Day 7 pre-treatment joint compression thresholds between all groups were assessed using one-way ANOVA. The Dunnett’s multiple comparison post hoc test was used when […]
# dosing were housed three per cage. Animals had free access to food and water and were maintained […]
# The animal colony was maintained at approximately 21 °C. All experiments were conducted in accordance with the International Association for the Study of Pain Guidelines.
# [3] = system: MMP-13; experiment: MMP-13 ELISA on supernatants of TNF-α-treated chondrogenic pellets; format: cell-based, human
# [4] = Comparison of in vitro screens: overlapping effective and nontoxic range;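 note: compares non-toxic ranges in synovial cells and chondrocytes with effective ranges against NFkB, MMP-13 and osteoclasts, giving their overlap as the predicted efficacy range in uM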
# [5] = system: RAW 264.7 cells; experiment: RANKL-mediated osteoclastogenesis / matrix resorption (Osteologic) assay; format: cell-based, murine
# Experimental: RAW 264.7 cells (American Type Culture Collection [ATCC], Manassas, VA, USA), a murine monocytic cell line that differentiates in the presence of RANKL, was used for measurements of osteoclastogenesis and osteoclast activity. Cells were amplified on nonadherent culture substratum in high-glucose Dulbecco’s modified Eagle’s medium (DMEM) containing 10 % fetal bovine serum (FBS) and penicillin-streptomycin in a 37 °C, 5 % CO2, humidified incubator and were passaged by manual dissociation. […] Plates were subsequently rinsed, bleached, dried, and analyzed for matrix degradation using a Nikon COOLSCOPE (Nikon Instruments, Melville, NY, USA). Matrix resorption was quantified using EclipseNet (Nikon Instruments)/Visiopharm (Visiopharm, Hørsholm, Denmark) software (see Additional file 1).
# In Vitro Osteoclastogenesis
# Osteoclastogenic activity was measured using BD osteologic plates and quantitation of the degree of bone matrix digestion on the plate surface. Images from the BD Osteologic assay used to […]
# left pane depicts an example of a control well after removal of cells from matrix. Pseudocoloring of matrix (blue) and pits (green) is shown in the far right pane. A transparent overlay of the two images is shown in the center.
# Figure 5 - Measurement of drug effects on osteoclastogenesis and osteoclast activity.
# Comparisons were made between RANKL treated control wells and wells treated with both RANKL and […]
# Agents were initially tested either during differentiation or post differentiation in the bone assay […]
# (e.g., Figure 2, Sulfazalazine). […]
# indicated (*/**: p < 0.05/0.01, unpaired t-test versus RANKL control). […]
# [6] = system: SW982; experiment: Synovial toxicity (CellTiter-Glo), with or without TNF-α
# [7] = system: MIA rat model of OA; experiment: MIA trial 3 histopathology (same doses as dRS test); format: in vivo; set-up: key to Cartilage matrix damage score: 5-point cartilage matrix score; key to Mean of all cartilage loss: approximate % loss, mean of four articular surfaces; Subchondral bone sclerosis: scale not given here
# From the text: For MIA trial 3, joints were fixed and toluidine blue–stained sections of the rat knees were comprehensively analyzed from test and control subjects as detailed in Additional file 1. Briefly, a 5-point cartilage matrix score was derived based upon (1) approximate percentage of total loss of articular chondrocytes for each of four articular surfaces, (2) estimated proteoglycan loss (via Safranin O staining), and (3) loss of interstitial matrix. Chondrocyte necrosis and proteolytic degeneration of the femurs were scored on a 5-point scale as in trial 1. A femoral cartilage degeneration score and a three-zone sum of the tibial cartilage degeneration scores (mean of three levels) were also summed to create a total cartilage degeneration score. The mean osteophyte score for each joint was added to this value to create a total joint score with matrix. Other parameters assessed included synovial membrane inflammation and proliferation. Representative images from each group were also collected (see, e.g., Fig. 4 and Additional file 1: Fig. S55, Trial 3). […]
# Hawes, APS, Pathologist). Treatments were masked during the assessment. Chondrocyte necrosis and proteolytic degeneration of the femurs were scored on a 5 point scale with 0 = None; 1 = <10%; […]
# For the histopathology of the MIA model in Trial 3, completed by Bolder BioPATH (and Dr.
# Bendele), a tolouidine blue stained slide containing both halves of the joint was comprehensively analyzed from test and control subjects. Approximate % of total loss of articular chondrocytes, loss of proteoglycan and loss of collagenous matrix were determined for each articular surface (medial tibial plateau (MTP), lateral tibial plateau (LTP), medial femoral condyle (MFC), and lateral femoral condyle (LFC). Chondrocyte loss was quantified by estimating the area of cartilage in which there were no apparently viable chondrocytes and proteoglycan loss was quantified by estimating differences in intensity of toluidine blue matrix staining. Loss of interstitial matrix was an indication of disruption and diminished type II collagen. Based on the mean % loss for the four surfaces in these parameters, a five point matrix score was utilized with the subchondral bone resorption, subchondral bone sclerosis and osteophyte scores to achieve a total joint score. […]
# […] steps, stained with toluidine blue (with a right and left halve per section), and analyzed for cartilage degeneration, proteoglycan loss, collagen damage, and osteophyte formation. Results were averaged across the 3 sections for an overall semi-quantitative score. Regional differences across the tibial plateau were taken into consideration by dividing each section into 3 zones delineated using an ocular micrometer (outside, middle, and inside). Scores were based on the percentage of area affected within the zone.
# Cartilage degeneration in the tibia was scored on a five point scale for each zone, collagen damage across the medial tibial plateau was measured by total width for each grade damage. Cartilage degeneration in the tibia was scored none to severe (numerical values 0-5) for each zone (area defined by micrometer) using the following criteria: […]
structure (smiles),measurement,setting,value
Cc1cnc(NC(=O)C2=C(O)c3ccccc3S(=O)(=O)N2C)s1 [Meloxicam],Non-toxic range (Chondrocyte),[1],0.125 to 8 M
same,"dRS, hours after dosing with significant difference",[2]; day 7,1 h
same,"dRS, hours after dosing with significant difference",[2]; day 14,3 h
same,Effective range against MMP-13,[3],Not effective
same,Non-toxic & predicted range of efficacy,[4],16 to 32 µM
same,Overlapping effective and nontoxic range,"[4]; inhibits with minimal or no toxicity to synovium or cartilage, overlapping range if effective in more than one assay",16 to 32 µM
same,Effective range against Osteoclasts,[5],Not effective
same,Non-toxic range (Synovial),[6],0.25 to 16 µM
same,"Bone resorption percent, LFC","[7]; group mean, i.a. weekly",0%
same,"Bone resorption percent, LTP","[7]; group mean, i.a. weekly",0%
same,"Bone resorption percent, MFC","[7]; group mean, i.a. weekly",15%
same,"Bone resorption percent, MTP","[7]; group mean, i.a. weekly",15%
same,"Bone resorption percent, mean","[7]; group mean, i.a. weekly",8%
same,Bone resorption score,"[7]; group mean, i.a. weekly",1.0
same,Cartilage matrix damage score,"[7]; group mean, i.a. weekly",1.0 and 1.0 ± 0.0
same,Mean of all cartilage loss,"[7]; group mean, i.a. weekly",9.7
same,Osteophyte measure,"[7]; group mean, i.a. weekly",146.7 µm
same,Osteophyte score,"[7]; group mean, i.a. weekly",0.7
same,Subchondral bone sclerosis,"[7]; group mean, i.a. weekly",0.3
same,Total joint score w/o matrix,"[7]; group mean, i.a. weekly",2.0
same,Total joint score with matrix,"[7]; group mean, i.a. weekly",3.0 and 3.0 ± 1.2
same,Decrease of total joint score vs vehicle controls,[7]; meloxicam 100 μg i.a.,47%
